Consider 10 molecules from patent US20220079915A1, “IMMUNOSUPPRESSIVE PHARMACEUTICAL COMPOSITION AND APPLICATION THEREOF” (Shanghai Archeus Biotech Co., Ltd., priority 2018, published 2022).

One series relates to cAMP. The note with it: source [1]; cited from earlier work.
The conditions of series [1]: cited from earlier work; for antihypertensive effect, equivalent to % of forskolin: source [2].
A further series concerns myocardial contraction. The note with it: cited from earlier work; for myocardial contraction activity, equivalent to % of forskolin: source [2]; for myocardial contraction activity EC50: sources [7], [8].
For series [2], the system named is systolic blood pressure (SBP), diastolic blood pressure (DBP), heart rate (HR). The note with it: source [3]; cited from earlier work.
For series [3] the following is noted: of 6-[3-(dimethylamino)propionyl]forskolin; sources [3], [4]; cited from earlier work.
The test system of series [4] is guinea pig myocardial contraction. The note with it: source [5]; cited from earlier work.
The subject of the next series is TNF-α. In words: LPS-induced TNF-α secretion in THP-1 cells, ELISA of culture supernatant. The note with it: for TNF-α treatment value, B: relative to control. The series is classed as cell-based, human. The procedure:
1) Recoveried and expanded THP-1 cells in a T75 culture flask. The growth medium was 10 milliliters of 10% fetal bovine serun/RPMI1640 (already containing 2 mM glutamine)/1% double antibiotics in each flask. Observed the cells under an invert microscope, and, when the cells were in the logarithmic growth phase, started the following drug treatment experiments; 2) Cultured 2*10e5/mL THP-1 cells in a 96-well culture plate with 100 microliters of growth medium (10% fetal bovine serum/RPMI640/1% double antibiotics) per well, and added 100 ng/ml PMA to incubate for 24 hour; 3) Eluted the non-adherent cells once with 300 microliters of fresh growth medium of 10% fetal bovine serum/RPMI1640/1% double antibiotics; 4) Added 200 microliters of growth medium of 10% fetal bovine serum/RPMI1640/1% double antibiotics, with/without test compound, to pre-incubate the cells at 37° C. for 2 hours; 5) Then added 100 ng/mL lipopolysaccharide (LPS) and incubated at 37° C. for 4 hours: 6) Collected 50 microliters of cell culture supernatant for the detection of the levels of related cytokines by enzyme-linked immunoassay, or stored it in a refrigerator at minus 80 degrees Celsius for future detection; 1) Prepared 1× elution buffer for enzyme-linked immunoassay. Prepared it with ultrapure water: 10× elution buffer mother solution=9:1 in volume ratio for use; 2) Prepared the antibody cocktail for enzyme-linked immunoassay. Prepared it with the antibody diluent (provided by Ab221825):antibody 1:antibody 2=18:1:1 in volume ratio for use. Antibody 1 was a TNF-α capture antibody and Antibody 2 was a TNF-α detector antibody. They were all supplied by kit Ab221825; 3) Prepared a series of concentration gradient samples of TNF-α standard with ultrapure water for the plotting of reaction standard curve and determining the linear range of detection signal; 4) Added 50 microliters of cell culture supernatant/standard and 50 microliters of the above antibody cocktail to a 96-well plate used for enzymatic reaction, sealed it with a film, placed it on a horizontal shaker, and incubated at 400 rpm for 1 hour at room temperature to allow the antibody-antigen complex was fully bound and coupled at the bottom of the well plate; 5) Discarded the supernatant, eluted with 350 microliters of 1× elution buffer/well for 3 times. In the last elution, put the well plate upside down on an absorbent paper and sucked and washed it thoroughly; 6) Added 100 microliters of TMB substrate solution (supplied by Ab221825) to each well, placed them on a horizontal shaker and incubated in the dark at room temperature for 5 minutes at a speed of 400 rpm; 7) Added 100 microliters of reaction stop solution (provided by Ab221825), placed on a horizontal shaker and mix at 400 rpm for 1 minute; 8) Detected the absorbance at 450 nm with a microplate reader.
On the technique in general: An ELISA detects its analyte on a solid surface through an enzyme-linked reagent.

The subject of the next series is IL-17A. In words: IL-17A secretion of mouse spleen Naïve CD4+ T cells induced to differentiate to Th17 cells by cytokines, ELISA. The format is cell-based. The procedure: 1) Pre-coated the 96-well plate with 2 μg/mL anti-mouse CD3e and incubated overnight at 4 degrees Celsius: 2) Separated fresh spleens from adult C57BL/6 female mice (8-12 weeks old), ground and filtered through a […] nylon cell strainer to obtain a single cell suspension in pre-cooled DPBS; 3) Washed the spleen cells again with DPBS, and resuspended in RoboSep™ buffer at a density of 1×10^8/mL; 4) Separated primary CD4+ T cells with mouse primary CD4+ T cell isolation kit as required by the kit; 5) Resuspended the isolated CD4+ T cells in complete medium (RPMI 1640 medium+10% inactivated FBS+1% double antibiotics) at a density of 1×10^6/mL; 6) Washed the 96-well plate pre-coated with anti-mouse CD3e twice with DPBS, added 50 μL of cytokine cocktail, the composition and final concentration of which are shown in Table 6 below, and then added 50 μL of compound solution (the final concentration of DMSO was 0.1%). Added 100 μL of cell suspension to each well to allow the final cell number per well to be 1×10^5/100 μL; [table] 7) Cultured the cells for 7 days under the above conditions. The culture conditions were 37 degrees Celsius, 5% CO2 concentration; 8) After 7 days, added 1× stimulation cocktail (eBioscience 500X) to the culture medium for 4 hours, and then collected cell culture supernatant for detection with IL-17A enzyme-linked immunoassay kit; 9) Completed the detection of supernatant IL-17A concentration with mouse IL-17 DuoSet ELISA kit; 10) Read the OD450 nm absorbance value with a microplate reader, and generated the standard curve by using the 4-parameter logistic fitting (4-PL) method. 1) Diluted the capture antibody (provided in the kit) to a working concentration in PBS without carrier protein, that is, a 96-well plate can be coated with 100 microliters per well. Sealed and incubated the plate overnight at room temperature; 2) Aspirated the coating buffer of the well plate, and eluted with 400 microliters of eluent (provided in the kit) for three times, aspirating as much liquid as possible each time; 3) Added 300 microliters of diluent (provided in the kit) to each well, and equilibrated for 1 hour at room temperature; 4) Eluted the well plate as in the above step 2) to be ready for the addition of sample; ) Added 100 microliters of sample or standard to each well containing the added diluent, and sealed and incubated the well plate for 2 hours at room temperature; 6) Eluted the well plate as in the above step 2); 7) Added 100 microliters of detector antibody (provided in the kit) to each well, and sealed and incubated the well plate for 2 hours at room temperature. 8) Eluted the well plate as in the above step 2); 9) Added 100 microliters of Streptavidin-HRP working solution (provided in the kit) to each well, and sealed and incubated the well plate in dark for 20 minutes at room temperature. 10) Eluted the well plate as in the above step 2); 11) Added 100 microliters of reaction substrate solution (provided in the kit) to each well, and incubated at room temperature for 20 minutes, protected from light: 12) Added 50 microliters of stop solution (provided in the kit) to each well, and tapped the well plate to ensure that the liquid is evenly mixed; 13) Detected the optical density value of each well at […]. The values could be corrected by deducting the values at 540 nm or 570 nm.

For series [5] the following is noted: cited from earlier work.
The target of series [6] is adenylate cyclase in rat cerebral cortex. The note with it: source [8]; read-out: activation of adenylate cyclase in rat cerebral cortex EC50; cited from earlier work.
The next series concerns psoriasis. The note with it: 4 patients with psoriasis; PCT/US84/00291; cited from earlier work.

SMILES strings stand for the structures.

Take `C=C[C@@]1(C)CC(=O)C2(O)[C@@]3(C)C(O)CCC(C)(C)C3[C@H](OC(=O)CCCN)C(OC(C)=O)[C@@]2(C)O1` (stereo partly shown) [6-(4-aminobutyryl)forskolin]: the cAMP activation in the series on cAMP is reported as 214.9%. In addition, in [1] (source [1]), the antihypertensive effect was 0.7. In the series on myocardial contraction (source [1]), the myocardial contraction activity is on record as 0.9 dp/dt.

With `C=C[C@@]1(C)CC(=O)C2(O)[C@@]3(C)C(O)CCC(C)(C)C3[C@H](OC(=O)CCN(C)C)C(OC(C)=O)[C@@]2(C)O1` (stereo partly shown) [6-[3-(dimethylamino)propionyl]forskolin], the “antihypertensive effect, equivalent to % of forskolin” value in [1] is on record as 80 % of forskolin. Moreover, in the series with myocardial contraction, the “myocardial contraction activity, equivalent to % of forskolin” value is recorded as 120 % of forskolin.

As for `C=C[C@@]1(C)CC(=O)C2(O)[C@@]3(C)[C@@H](O)CCC(C)(C)[C@@H]3[C@H](OC(=O)CCNC)[C@H](OC(C)=O)[C@@]2(C)C1` (stereo partly shown) [6-[3-(methylamino)propionyl]forskolin], the “beagle dog's systolic blood pressure (SBP), diastolic blood pressure (DBP), heart rate (HR) and other effects” value in series [2] is “equivalent to 6-[3- (dimethylamino)- propionyl]forskolin”. Also, in [3], the metabolite status result was “in vivo active metabolite”.

As to `C=C[C@@]1(C)CC(=O)C2(O)[C@@]3(C)[C@@H](O)CCC(C)(C)[C@@H]3[C@H](OC(=O)CCN)[C@H](OC(C)=O)[C@@]2(C)C1` (stereo partly shown) [6-[3-aminopropionyl]forskolin], the metabolite status entry in series [3] was “in vivo active metabolite of 6-[3- (dimethylamino)- propionyl]forskolin”.

Regarding `C=C[C@@]1(C)CC(=O)C2(O)[C@@]3(C)C(O)CCC(C)(C)C3[C@H](OC(=O)CCCN(C)C)C(OC(C)=O)[C@@]2(C)O1` (stereo partly shown) [6-[4-(dimethylamino)butyryl]forskolin], the “antihypertensive effect, equivalent to % of forskolin” value in series [1] is reported as 90 % of forskolin. Further, the “myocardial contraction activity, equivalent to % of forskolin” value in the series with myocardial contraction is 100 % of forskolin.

In the case of `C=CC1(C)CC(=O)C2(O)C(C)(O1)C(O)C(OC(=O)CN1CCCCC1)C1C(C)(C)CCC(O)C12C` (stereo not shown) [6-[(piperidino)acetyl]-7-desacetyl forskolin], the “guinea pig myocardial contraction activity EC50” value in series [4] is reported as “guinea pig myocardial contraction activity EC50: 1.8 μg/mL”.

For the molecule `C=C[C@@]1(C)CC(=O)[C@]2(O)C3(C)C(C(O)C(OC(=O)COC=O)[C@@]2(C)O1)C(C)(C)CC[C@@H]3O` (stereo partly shown) [7-(2-formyloxy)forskolin], the “myocardial contraction activity EC50” value in the series on myocardial contraction was “myocardial contraction activity EC50 = 0.002 μg/mL”.

With `CCCCC[C@H](O)/C=C/[C@H]1[C@H](O)CC(=O)[C@@H]1C/C=C\CCCC(=O)O` [PGE2, prostaglandin E2, reference compound], the “effect on secretion and expression of TNF-α” value in the series with TNF-α (10 μM PGE2 alone, FIG. 4) is “inhibited the secretion and expression of TNF-α to a certain extent”. Besides, the “TNF-α treatment value, B” value with TNF-α (Table 3, 10 μM PGE2) is reported as 46%. Moreover, in the series with IL-17A (3 μM PGE2 alone, FIG. 10), the “IL-17A, % of the basic level” value is 17%. The “IL-17A treatment value, B” value with IL-17A (Table 7, relative to control, 3 μM PGE2) amounted to 17%.

What is called EC50 is the concentration giving half of the maximal effect. Take `C=C[C@@]1(C)CC(=O)[C@]2(O)[C@@]3(C)[C@@H](O)CCC(C)(C)[C@@H]3[C@H](O)[C@H](OC(C)=O)[C@@]2(C)O1` [forskolin]: in the series with TNF-α (FIG. 2, compared with 6-[3-(dimethylamino)propionyl]forskolin hydrochloride), the “drug activity in reducing TNF-α” value is listed as “slightly lower than the aforementioned compound”. In addition, the water solubility result in series [5] is listed as “poor”. Also, in [6], the EC50 was 8 µM. Further, the “myocardial contraction activity EC50” value with myocardial contraction is 0.02 µg/mL. For the same molecule, the “effect on pathological symptoms of psoriasis” value in the series with psoriasis is “relieved the pathological symptoms”.

For `C[C@]12CCC(=O)C=C1CC[C@@H]1[C@@H]2[C@@H](O)C[C@@]2(C)[C@H]1CC[C@]2(O)C(=O)CO` [hydrocortisone, reference compound], the “effect on TNF-α” value with TNF-α (30 μM hydrocortisone alone, pre-incubated 2 hours before LPS, FIG. 6) is “further stimulated the increase of inflammatory factor TNF-α”. Also, in the series on TNF-α (Table 4, 30 μM hydrocortisone), the “TNF-α treatment value, B” value is reported as 200%. Also, the “reduction of the IL-17A level, % of the basic level” value in the series with IL-17A (3 μM hydrocortisone alone, FIG. 12) is 38%. Moreover, the “IL17-A treatment value, B” value in the series on IL-17A (Table 8, relative to control, 3 μM hydrocortisone) is listed as 62%.
